Results on four molecules are retold here after patent US6747049B2, “Oxazole derivatives” (Hoffmann-La Roche Inc., priority 2002, dated 2004).

SMILES strings stand for the structures.

Assay [1] deals with T1, PPARγ (Mus musculus, UniProt P37238).
T1 construct: made in house; host or cells: E. coli BL21(pLysS)
T1 sequence (P37238 204-505): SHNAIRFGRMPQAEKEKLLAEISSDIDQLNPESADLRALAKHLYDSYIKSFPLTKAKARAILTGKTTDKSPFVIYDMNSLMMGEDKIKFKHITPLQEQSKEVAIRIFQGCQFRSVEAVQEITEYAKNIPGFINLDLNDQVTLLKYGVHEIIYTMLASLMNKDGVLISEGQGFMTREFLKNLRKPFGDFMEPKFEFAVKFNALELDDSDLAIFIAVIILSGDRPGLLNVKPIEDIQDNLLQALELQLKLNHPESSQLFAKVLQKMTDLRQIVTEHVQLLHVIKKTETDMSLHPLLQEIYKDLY
Kind of assay: PPARγ radioligand binding assay (scintillation proximity, GST-PPARγ-LBD). Conditions: SPA beads. An excerpt: Background information on the performed assays can be found in: Nichols J S et al. “Development of a scintillation proximity assay for peroxisome proliferator-activated receptor gamma ligand binding domain”, (1998) Anal. Biochem. 257:112-119.
(§1) Full-length cDNA clones for human PPARα and mouse PPARγ were obtained by RT-PCR from human adipose and mouse liver cRNA, respectively, cloned into plasmid vectors and verified by DNA sequencing. Bacterial and mammalian expression vectors were constructed to produce glutathione-s-transferase (GST) and Gal4 DNA binding domain proteins fused to the ligand binding domains (LBD) of PPARγ (aa 174 to 476) and PPARα (aa 167 to 469). To accomplish this, the portions of the cloned sequences encoding the LBDs were amplified from the full-length clones by PCR and then subcloned into the plasmid vectors. Final clones were verified by DNA sequence analysis.
Induction, expression, and purification of GST-LBD fusion proteins were performed in E. coli strain BL21(pLysS) cells by standard methods (Ref: Current Protocols in Molecular Biology, Wiley Press, edited by Ausubel et al.).
Radioligand Binding Assay
PPARγ receptor binding was assayed in TKE50 (50 mM Tris-HCl, pH 8, 50 mM KCl, 2 mM EDTA, 0.1 mg/ml fatty acid-free BSA and 10 mM DTT). For each 96 well reaction an 140 ng equivalent of GST-PPARγ-LBD fusion protein was bound to 10 ug SPA beads (PharmaciaAmersham) in a final volume of 50 ul by shaking. The resulting slurry was incubated for 1 h at RT and centrifuged for 2 min at 1300 g. The supernatant containing unbound protein was removed and the semidry pellet containing the receptor-coated beads was resolved in 50 ul of TKE. For radioligand binding e.g. 10000 dpm 2(S)-(2-benzoyl-phenylamino)-3-{4-[1,1-ditritio-2-(5-methyl-2-phenyl-oxazol-4-yl)-ethoxy]-phenyl}-propionic acid in 50 ul were added, the reaction incubated at RT for 1 h and scintillation proximity counting performed. All binding assays were performed in 96 well plates and the amount of bound ligand measured on a Packard TopCount using OptiPlates (Packard). Nonspecific binding was determined in the presence of 10^−4 M unlabelled compound. Dose response curves were done in triplicates within a range of concentration from 10^−10 M to 10^−4 M.

Assay [2] has as its target T2, PPARα (Homo sapiens, UniProt Q07869).
T2 construct: expressed in transfected cells; host or cells: BHK21 (ATCC CCL10)
T2 sequence (Q07869 167-468 limits assumed): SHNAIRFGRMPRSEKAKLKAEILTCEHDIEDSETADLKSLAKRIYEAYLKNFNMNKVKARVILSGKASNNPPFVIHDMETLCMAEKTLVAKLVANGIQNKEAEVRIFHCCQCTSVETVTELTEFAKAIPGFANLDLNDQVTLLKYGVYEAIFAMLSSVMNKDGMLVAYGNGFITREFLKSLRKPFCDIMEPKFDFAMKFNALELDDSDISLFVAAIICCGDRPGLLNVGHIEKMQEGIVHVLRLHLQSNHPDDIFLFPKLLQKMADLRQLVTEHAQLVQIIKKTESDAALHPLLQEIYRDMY
Kind of assay: Luciferase transcriptional reporter gene assay, pFA-PPARα-LBD in BHK21 cells. Type of assay: cell-based. Conditions: Gal4-PPARα-LBD luciferase reporter, 24 hours incubation. The text has this:
Full-length cDNA clones for human PPARα and mouse PPARγ were obtained by RT-PCR from human adipose and mouse liver cRNA, respectively, cloned into plasmid vectors and verified by DNA sequencing. […] To accomplish this, the portions of the cloned sequences encoding the LBDs were amplified from the full-length clones by PCR and then subcloned into the plasmid vectors. Final clones were verified by DNA sequence analysis.
(§2) Luciferase Transcriptional Reporter Gene Assays
(§3) Baby hamster kidney cells (BHK21 ATCC CCL10) were grown in DMEM medium containing 10% FBS at 37° C. in a 95%[…]:5%CO2 atmosphere. Cells were seeded in 6 well plates at a density of 10^5 Cells/well and then batch-transfected with either the pFA-PPARγ-LBD or pFA-PPARα-LBD expression plasmids plus the pFR-luc reporter plasmid and an expression plasmid encoding the secretable form of alkaline phosphatase (SEAP) as a normalization control. […] Six hours following transfection, the cells were harvested by trypsinization and seeded in 96 well plates at a density of 10^4 cells/well. After 24 hours to allow attachment of cells, the medium was removed and replaced with 100 ul of phenol red-free medium containing the test substances or control ligands (final. 0.1% DMSO). Following incubation of the cells for 24 hours with substances, 50 ul of the supernatant was recovered and analyzed for SEAP activity (Roche Molecular Biochemicals). The remainder of the supernatant was discarded, 50 ul PBS was added per well followed by one volume of Luciferase Constant-Light Reagent (Roche Molecular Biochemicals) to lyse the cells and initiate the luciferase reaction. Luminescence for both SEAP and luciferase was measured in a Packard TopCount. Luciferase activity was normalized to the SEAP control and transcriptional activation in the presence of a test substance was expressed as fold-activation over cells incubated in the absence of the substance. EC50 values were calculated using the XLfit program (ID Business Solutions Ltd. UK).

Assay [3] deals with T3, PPARγ (Mus musculus, UniProt P37238).
T3 construct: expressed in transfected cells; host or cells: BHK21 (ATCC CCL10)
T3 sequence (P37238 174-475 isoform P37238-2): T1 sequence (P37238 204-505)
Nature of the assay: Luciferase transcriptional reporter gene assay, pFA-PPARγ-LBD in BHK21 cells. The class given is cell-based. The note with it: Gal4-PPARγ-LBD luciferase reporter, 24 hours incubation.
Description: as §1, §2, §3

Regarding `COc1cccc(CN(c2ccccc2)c2ccc(OCCc3nc(-c4ccccc4)oc3C)cc2)c1C(=O)O` [Example 26, 2-methoxy-6-[({4-[2-(5-methyl-2-phenyl-oxazol-4-yl)-ethoxy]-phenyl}-phenyl-amino)-methyl]-benzoic acid], in assay [1], the IC50 is 980 nM. Besides, the values for the EC50 in assay [2] and in assay [3] were 2050 nM and 1410 nM, respectively.

For the molecule `CCCN(Cc1ccccc1C(=O)O)c1ccc(OCCc2nc(-c3ccccc3)oc2C)cc1` [Example 6, 2-[({4-[2-(5-methyl-2-phenyl-oxazol-4-yl)-ethoxy]-phenyl}-propyl-amino)-methyl]-benzoic acid], in assay [1], the IC50 came to 930 nM. The EC50 amounted to 2700 nM in assay [2] and 1320 nM in assay [3].

`Cc1oc(-c2ccccc2)nc1CCOc1ccc(N(Cc2ccccc2C(=O)O)c2ccc(F)cc2)cc1` [Example 12, 2-[((4-fluoro-phenyl)-{4-[2-(5-methyl-2-phenyl-oxazol-4-yl)-ethoxy]-phenyl}-amino)-methyl]-benzoic acid] yielded an IC50 in assay [1] of 1080 nM. In addition, the EC50 in assay [2] is 2590 nM; in assay [3], 2320 nM.

In turn, `Cc1oc(-c2ccccc2)nc1CCOc1ccc(N(Cc2c(F)cccc2C(=O)O)c2ccccc2)cc1` [Example 18, 3-fluoro-2-[({4-[2-(5-methyl-2-phenyl-oxazol-4-yl)-ethoxy]-phenyl}-phenyl-amino)-methyl]-benzoic acid] had an IC50 in assay [1] of 240 nM. Further, the EC50 in assay [2] was 10000 nM; in assay [3] it was 1980 nM.
